Paper PMC5766581, “NF-κB inducing kinase is a therapeutic target for systemic lupus erythematosus” (Nature Communications, 2018)

Assays:
[1] = system: nuclear RelA (canonical NF-κB signaling); assay: High content nuclear RelA imaging, TNF-stimulated HeLa cells; format: cell-based, human
Method: (§1) The HeLa cell line was used to define the cellular selectivity of NIK inhibitors toward inhibition of classical vs. non-classical NF-κB signaling using high content cellular imaging assays. For the nuclear translocation assay p52 (non-canonical NF-κB signaling), HeLa cells were treated with different concentrations of compounds previously diluted in DMSO (final [DMSO] = 0.2% in all wells) in DMEM medium (10% FBS, 2 mM Glutamine) and then stimulated with 300 ng/mL of an anti-lymphotoxin beta receptor antibody for 4.5 h. In the REL-A nuclear translocation assay, HeLa cells were incubated with compounds for 4 h 50 min before stimulating them with 2 ng/mL TNF (R&D Systems) for 10 min. Cells were fixed with 4% paraformaldehyde, permeabilized by adding 0.1% Triton X-100 in phosphate buffered saline, and then are incubated with either 2 μg/mL anti-p52 antibody or 400 ng/mL anti-REL-A (p65) antibody. Finally, the cells are incubated with an Alexa488-labeled secondary antibody (Invitrogen) and DRAQ5 DNA stain (Biostatus). Imaging was carried out using an Opera reader (Perkin Elmer) and data were analyzed with Acapella software (Perkin Elmer). The p52 or REL-A translocation into the nucleus is quantified by the ratio of the nuclear to cytoplasmic signal intensity.

[2] = system: p52 processing in mouse RPTEC; assay: TWEAK-induced p52 processing western blot in RPTEC; format: cell-based; conditions: murine RPTEC; 3 μM; 4, 8 and 24 h
Method: (§2) p52/p100 and β-actin were monitored by western blot as described previously. […] Mouse and human RPTEC cells were stimulated with recombinant mouse or human TWEAK (100 ng/mL, R&D Systems). Primary B cells were isolated by negative selection (Miltenyi) from either mouse spleen or human whole blood. Human primary B cells were stimulated with either rhCD40L (10 μg/mL) or rhBAFF (400 ng/mL) (R&D Systems). Mouse primary B cells were stimulated with either anti-CD40 (10 μg/mL, BD Biosciences) or rmBAFF (400 ng/mL). […] HeLa cells (ATCC) were stimulated for 8 h with anti-LTβR agonist antibody and cytoplasmic and nuclear extracts were generated using kits purchase from Thermo Scientific and approximately […] of each extract was monitored for p52/p100, phospho-RelA, RelA, or β-Actin, Histone H3, or Lamin B1 controls. Uncropped western blots, as required by journal policies, are provided in Supplementary Fig. 13 and 14.

[3] = system: p52 processing in human RPTEC; assay: TWEAK-induced p52 processing western blot in RPTEC; format: cell-based; conditions: 1 μM, 4, 8 and 24 h
Method: as §2

PhK_gamma2 = target: T1, PhK_gamma2 (Homo sapiens, UniProt P15735); assay: SelectScreen kinase panel; format: biochemical
T1 construct: purchased Invitrogen / ThermoFisher SelectScreen

[4] = system: IL-12p40 production from mouse splenic DC; assay: anti-CD40-induced IL-12p40 production from splenic DCs; format: cell-based; conditions: WT mouse splenic DC (not in NIK-deficient); 3 µM or 1 µM, 18 hrs
Method: Supplementary Figure 2. NIK inhibition of IL-12p40 production from splenic DCs Splenic DCs (B220- CD11c +) were sorted from Nik WT/WT,CD11c-CRE + and Nik fl/fl, CD11c- […]
µM) for 18 hrs. IL-12p40 production was measured by ELISA. Data represented as mean ± standard deviation of 3 biological replicates. One-way ANOVA with Tukey’s test for multiple comparisons. *p<0.05, **p<0.01, ***p<0.001; ****p<0.0001; ns, not significant.

[5] = system: TWEAK inducible genes in murine RPTEC; assay: TWEAK-induced NIK-dependent gene expression in RPTECs (RNASeq); format: cell-based, mouse; conditions: 3 μM
Method: Total RNA was extracted using Qiagen RNeasy kit as per manufacturer’s protocol including the on-column DNase digestion. Quality control of samples was done to determine RNA quantity and quality prior to their processing by RNA-seq. The concentration of RNA samples was determined using NanoDrop 8000 (Thermo Scientific) and the integrity of RNA was determined by Fragment Analyzer (Advanced Analytical). 0.5 ug of total RNA was used as an input material for library preparation using TruSeq RNA Sample Preparation Kit v2 (Illumina). Size of the libraries was confirmed using 2200 TapeStation and High Sensitivity D1K screen tape (Agilent Technologies) and their concentration was determined by qPCR based method using Library quantification kit (KAPA). The libraries were multiplexed and then sequenced on Illumina HiSeq2500 (Illumina) to generate 30 M of single end 50 base pair reads. […] Raw RNA sequencing reads were processed using the HTSeqGenie Bioconductor package. Reads were aligned to the reference mouse genome sequence (National Center for Biotechnology Information build 37) using the Genomic Short-Read Nucleotide Alignment Program algorithm. Uniquely aligned read pairs that fell within exons were counted to estimate individual gene expression levels. For inclusion, genes were required to have >10 reads in at least four samples. […] Data were analyzed and plotted using Expression Plot[72].

[6] = system: IL-12p40 production from human monocyte derived DC; assay: CD40L induced IL-12p40 production from human DCs; format: cell-based
Method: Human monocytes were enriched from whole blood (Monocyte enrichment RosetteSep, Stem Cell) followed by isolation using Monocyte Isolation Kit II (Miltenyi). Isolated monocytes were cultured (RPMI-10% FBS, penicillin/streptomycin, glutamine) with rhGM-CSF (100 ng/mL) and rhIL-4 (6.5 ng/mL) (R&D Systems) for 5 days with GM-CSF replacement on day 3. On Day 5 immature monocyte derived DCs were monitored for differentiation by flow cytometry ([…], CD83^low CD86^low CD209^+/hi). […] After 24 h plates were centrifuged and supernatants were removed for IL-12p40 cytokine measurement by ELISA (BD Biosciences). Plots and IC50 measurements were generated using GraphPad Prism software.

[7] = system: nuclear p52 (non-canonical NF-κB signaling); assay: High content nuclear p52 imaging, anti-LTβR-stimulated HeLa cells; format: cell-based, human; conditions: Homo sapiens, anti-LTβR induced, mean ± SD
Method: as §1

T1 sequence (P15735 whole entry): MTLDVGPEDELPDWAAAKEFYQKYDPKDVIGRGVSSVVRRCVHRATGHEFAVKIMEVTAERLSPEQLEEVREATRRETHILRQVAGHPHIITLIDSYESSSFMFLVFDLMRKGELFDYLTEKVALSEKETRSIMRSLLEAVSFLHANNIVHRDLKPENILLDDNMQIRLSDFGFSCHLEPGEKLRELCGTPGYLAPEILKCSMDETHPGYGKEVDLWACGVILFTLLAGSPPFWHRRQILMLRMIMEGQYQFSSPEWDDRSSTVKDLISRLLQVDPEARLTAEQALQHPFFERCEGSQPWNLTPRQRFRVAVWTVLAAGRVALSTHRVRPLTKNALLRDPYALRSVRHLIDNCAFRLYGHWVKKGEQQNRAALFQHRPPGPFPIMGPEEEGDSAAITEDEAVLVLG

With COc1cc(C(N)=O)nc(-c2cccc(C#C[C@]3(O)CCN(C)C3=O)c2)c1 [NIK SMI1] the “effect on canonical signaling as measured by TNF alpha-induced nuclear relA levels” value [1] was “no effect”, the IC50 ([1]; Homo sapiens, TNF induced) was over 2000 nM and the “TWEAK-induced p52 processing” value [2] was “significantly reduced”. The “TWEAK-induced p52 processing” value [3] was “significantly reduced”, the inhibition at 1 µM (PhK_gamma2) was -3% and the “anti-CD40-induced IL-12p40 production” value [4] was “reduced”. For the same molecule, the “TWEAK inducible gene expression” value ([5]; 6 and 24 h, RNASeq) was “majority of TWEAK inducible genes were inhibited”, the “genes induced by TWEAK and repressed by NIK SMI1” value ([5]; RPTEC in vitro) was 179 genes and the “CD40L-induced IL-12p40 production” value ([6]; dendritic cells) was “nearly completely inhibited”. It also gave an IC50 ([6]; human monocyte derived DC, rhCD40L, mean ± SD, read-out: CD40-induced IL-12 p40 IC50) of 95.8 nM and an IC50 [7] of 70 nM.
